Experiments:
Assay type in all cases: in vivo
[1] = system: Alopecurus myosuroides (ALOMY); test: Post-emergence herbicidal efficacy at 320 g/ha, greenhouse pot test; conditions: visual rating vs untreated control after about 3 weeks
Method in brief: (§1)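 Post-emergence foliar spray on one-leaf-stage weeds, 2 to 3 weeks from sowing, using WP or EC preparations with 0.5% additive. Damage was judged by eye after roughly 3 weeks compared with untreated controls.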

[2] = system: Amaranthus retroflexus (AMARE); test: as above; conditions: visual rating vs untreated control after about 3 weeks
Method in brief: as §1

Stellaria media (STEME) [3] = test: as above; conditions: visual rating vs untreated control after about 3 weeks
Method in brief: as §1

Veronica persica (VERPE) [4] = test: as above; conditions: 320 g/ha, visual rating vs untreated control after about 3 weeks
Method in brief: as §1

[5] = system: Alopecurus myosuroides (ALOMY); test: Post-emergence herbicidal efficacy at 80 g/ha, greenhouse pot test; conditions: visual rating vs untreated control after about 3 weeks
Experimental: (§2) Seeds of monocotyledonous and dicotyledonous weeds and crop plants were placed in sandy loam in plastic or organic planting pots, covered with soil and cultivated in a greenhouse under controlled growth conditions. 2 to 3 weeks after sowing, the test plants were treated at the one-leaf stage. The compounds of the invention, formulated in the form of wettable powders (WP) or as emulsion concentrates (EC), were then sprayed onto the green parts of the plants as aqueous suspension or emulsion with addition of 0.5% additive at a water application rate of 600 l/ha (converted). After the test plants had been kept in the greenhouse under optimum growth conditions for about 3 weeks, the activity of the preparations was rated visually in comparison to untreated controls. For example, 100% activity=the plants have died, 0% activity=like control plants. Tables B1 to B6 below show the effects of selected compounds of the general formula (I) according to Table 1 on various harmful plants and an application rate corresponding to 80 g/ha, which were obtained by the experimental procedure mentioned above.

[6] = system: Amaranthus retroflexus (AMARE); test: as above; conditions: visual rating vs untreated control after about 3 weeks
Experimental: as §2

Viola tricolor (VIOTR) [7] = test: as above; conditions: visual rating vs untreated control after about 3 weeks
Experimental: as §2

[8] = system: Abutilon theophrasti (ABUTH); test: Pre-emergence herbicide efficacy at 320 g/ha, greenhouse pot test; conditions: visual scoring vs untreated control after about 3 weeks
Method in brief: (§3)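 Seeds sown in sandy loam, covered, and compound (WP or EC) sprayed onto soil surface with 0.5% additive at 600 L/ha water. Pots kept in greenhouse; efficacy scored visually after about 3 weeks as % versus untreated control (100% = plants dead).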

[9] = system: Alopecurus myosuroides (ALOMY); test: as above; conditions: visual scoring vs untreated control after about 3 weeks
Method in brief: as §3

[10] = system: Amaranthus retroflexus (AMARE); test: as above; conditions: visual scoring vs untreated control after about 3 weeks
Method in brief: as §3

Bassia scoparia (KCHSC) [11] = test: as above; conditions: 320 g/ha, visual scoring vs untreated control after about 3 weeks
Method in brief: as §3

[12] = system: Digitaria sanguinalis (DIGSA); test: as above; conditions: visual scoring vs untreated control after about 3 weeks
Method in brief: as §3

[13] = system: Echinochloa crus-galli (ECHCG); test: as above; conditions: visual scoring vs untreated control after about 3 weeks
Method in brief: as §3

Lolium rigidum (LOLRI) = test: as above; conditions: visual scoring vs untreated control after about 3 weeks
Method in brief: as §3

[14] = system: Matricaria inodora (MATIN); test: as above; conditions: visual scoring vs untreated control after about 3 weeks
Method in brief: as §3

Poa annua (POAAN) [15] = test: as above; conditions: visual scoring vs untreated control after about 3 weeks
Method in brief: as §3

Setaria viridis (SETVI) = test: as above; conditions: visual scoring vs untreated control after about 3 weeks
Method in brief: as §3

Stellaria media (STEME) [16] = test: as above; conditions: visual scoring vs untreated control after about 3 weeks
Method in brief: as §3

Veronica persica (VERPE) [17] = test: as above; conditions: visual scoring vs untreated control after about 3 weeks
Method in brief: as §3

[18] = system: Abutilon theophrasti (ABUTH); test: Pre-emergence herbicide efficacy at 80 g/ha, greenhouse pot test; conditions: visual scoring vs untreated control after about 3 weeks
Excerpt: (§4) Seeds of monocotyledonous and dicotyledonous weed plants and crop plants were placed in plastic or organic planting pots and covered with soil. The compounds of the invention, formulated in the form of wettable powders (WP) or as emulsion concentrates (EC), were then applied to the surface of the covering soil as aqueous suspension or emulsion with addition of 0.5% additive at a water application rate of […] (converted). After the treatment, the pots were placed in a greenhouse and kept under good growth conditions for the test plants. After about 3 weeks, the effect of the preparations was scored visually in comparison with untreated controls as percentages. For example, 100% activity=the plants have died, 0% activity=like control plants. Tables D1 to D12 below show the effects of selected compounds of the general formula (I) according to Table 1 on various harmful plants and an application rate corresponding to 80 g/ha, which were obtained by the experimental procedure mentioned above.

[19] = system: Alopecurus myosuroides (ALOMY); test: as above; conditions: visual scoring vs untreated control after about 3 weeks
Excerpt: as §4

[20] = system: Amaranthus retroflexus (AMARE); test: as above; conditions: visual scoring vs untreated control after about 3 weeks
Excerpt: as §4

[21] = system: Polygonum convolvulus (POLCO); test: as above; conditions: visual scoring vs untreated control after about 3 weeks
Excerpt: as §4

Veronica persica (VERPE) [22] = test: as above; conditions: visual scoring vs untreated control after about 3 weeks
Excerpt: as §4

Viola tricolor (VIOTR) [23] = test: as above; conditions: visual scoring vs untreated control after about 3 weeks
Excerpt: as §4

[24] = system: Abutilon theophrasti (ABUTH); test: Post-emergence herbicidal efficacy at 320 g/ha, greenhouse pot test; conditions: visual rating vs untreated control after about 3 weeks
Method in brief: as §1

Bassia scoparia (KCHSC) [25] = test: as above; conditions: visual rating vs untreated control after about 3 weeks
Method in brief: as §1

[26] = system: Digitaria sanguinalis (DIGSA); test: as above; conditions: visual rating vs untreated control after about 3 weeks
Method in brief: as §1

Poa annua (POAAN) [27] = test: as above; conditions: visual rating vs untreated control after about 3 weeks
Method in brief: as §1

[28] = system: Polygonum convolvulus (POLCO); test: Post-emergence herbicidal efficacy at 80 g/ha, greenhouse pot test; conditions: visual rating vs untreated control after about 3 weeks
Experimental: as §2

Veronica persica (VERPE) [29] = test: as above; conditions: visual rating vs untreated control after about 3 weeks
Experimental: as §2

[30] = system: Digitaria sanguinalis (DIGSA); test: Pre-emergence herbicide efficacy at 80 g/ha, greenhouse pot test; conditions: visual scoring vs untreated control after about 3 weeks
Excerpt: as §4

[31] = system: Matricaria inodora (MATIN); test: as above; conditions: visual scoring vs untreated control after about 3 weeks
Excerpt: as §4

Cc1cc(C)c(-c2cc(C(F)(F)F)no2)c(Oc2ncc(Cl)cn2)n1 [Example I-2]
80%: Pre-emergence efficacy against Alopecurus myosuroides (ALOMY) [19] | Pre-emergence efficacy against Polygonum convolvulus (POLCO) [21]
90%: Post-emergence efficacy against Alopecurus myosuroides (ALOMY) [1] | Post-emergence efficacy against Alopecurus myosuroides (ALOMY) [5] | Post-emergence efficacy against Viola tricolor (VIOTR) (Viola tricolor (VIOTR) [7]) | Pre-emergence efficacy against Bassia scoparia (KCHSC) (Bassia scoparia (KCHSC) [11]) | Pre-emergence efficacy against Lolium rigidum (LOLRI) (Lolium rigidum (LOLRI)) | Pre-emergence efficacy against Abutilon theophrasti (ABUTH) [18] | Pre-emergence efficacy against Veronica persica (VERPE) (Veronica persica (VERPE) [22]) | Pre-emergence efficacy against Viola tricolor (VIOTR) (Viola tricolor (VIOTR) [23])
100%: Post-emergence efficacy against Amaranthus retroflexus (AMARE) [2] | Post-emergence action against Stellaria media (STEME) (Stellaria media (STEME) [3]) | Post-emergence efficacy against Veronica persica (VERPE) (Veronica persica (VERPE) [4]) | Post-emergence efficacy against Amaranthus retroflexus (AMARE) [6] | Pre-emergence efficacy against Abutilon theophrasti (ABUTH) [8] | Pre-emergence efficacy against Alopecurus myosuroides (ALOMY) [9] | Pre-emergence efficacy against Amaranthus retroflexus (AMARE) [10] | Pre-emergence efficacy against Digitaria sanguinalis (DIGSA) [12] | Pre-emergence efficacy against Echinochloa crus-galli (ECHCG) [13] | Pre-emergence efficacy against Matricaria inodora (MATIN) [14] | Pre-emergence efficacy against Poa annua (POAAN) (Poa annua (POAAN) [15]) | Pre-emergence efficacy against Setaria viridis (SETVI) (Setaria viridis (SETVI)) | Pre-emergence efficacy against Stellaria media (STEME) (Stellaria media (STEME) [16]) | Pre-emergence efficacy against Veronica persica (VERPE) (Veronica persica (VERPE) [17]) | Pre-emergence efficacy against Amaranthus retroflexus (AMARE) [20]

Cc1cc(C)c(-c2cc(C(F)F)on2)c(Oc2ncc(F)cn2)n1 [Example I-3]
90%: Post-emergence efficacy against Abutilon theophrasti (ABUTH) [24] | Post-emergence efficacy against Amaranthus retroflexus (AMARE) [2] | Post-emergence efficacy against Digitaria sanguinalis (DIGSA) [26] | Post-emergence action against Stellaria media (STEME) (Stellaria media (STEME) [3]) | Post-emergence efficacy against Alopecurus myosuroides (ALOMY) [5] | Post-emergence efficacy against Amaranthus retroflexus (AMARE) [6] | Pre-emergence efficacy against Polygonum convolvulus (POLCO) [21]
80%: Post-emergence efficacy against Veronica persica (VERPE) (Veronica persica (VERPE) [29]) | Pre-emergence efficacy against Veronica persica (VERPE) (Veronica persica (VERPE) [22])
100%: Post-emergence efficacy against Bassia scoparia (KCHSC) (Bassia scoparia (KCHSC) [25]) | Post-emergence efficacy against Poa annua (POAAN) (Poa annua (POAAN) [27]) | Post-emergence efficacy against Veronica persica (VERPE) (Veronica persica (VERPE) [4]) | Post-emergence efficacy against Polygonum convolvulus (POLCO) [28] | Post-emergence efficacy against Viola tricolor (VIOTR) (Viola tricolor (VIOTR) [7]) | Pre-emergence efficacy against Abutilon theophrasti (ABUTH) [8] | Pre-emergence efficacy against Alopecurus myosuroides (ALOMY) [9] | Pre-emergence efficacy against Amaranthus retroflexus (AMARE) [10] | Pre-emergence efficacy against Bassia scoparia (KCHSC) (Bassia scoparia (KCHSC) [11]) | Pre-emergence efficacy against Digitaria sanguinalis (DIGSA) [12] | Pre-emergence efficacy against Echinochloa crus-galli (ECHCG) [13] | Pre-emergence efficacy against Matricaria inodora (MATIN) [14] | Pre-emergence efficacy against Poa annua (POAAN) (Poa annua (POAAN) [15]) | Pre-emergence efficacy against Setaria viridis (SETVI) (Setaria viridis (SETVI)) | Pre-emergence efficacy against Stellaria media (STEME) (Stellaria media (STEME) [16]) | Pre-emergence efficacy against Veronica persica (VERPE) (Veronica persica (VERPE) [17]) | Pre-emergence efficacy against Amaranthus retroflexus (AMARE) [20] | Pre-emergence efficacy against Digitaria sanguinalis (DIGSA) [30] | Pre-emergence efficacy against Matricaria inodora (MATIN) [31] | Pre-emergence efficacy against Viola tricolor (VIOTR) (Viola tricolor (VIOTR) [23])

— patent publication US20230303549A1, “SUBSTITUTED HETEROARYLOXYPYRIDINES, THE SALTS THEREOF AND THEIR USE AS HERBICIDAL AGENTS” (Bayer Aktiengesellschaft, priority 2020, published 2023)
